Measured values: PubChem BioAssay (NCI)
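Tested at 5 concentrations; 48 h exposure; 96-well plates; endpoints linearly interpolated, else capped at highest concentration. At the GI50, growth is halved. Definition used: TGI = concentration required for complete inhibition of growth.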

Experiments:
Experiment in all cases: DTP human tumour cell line panel, 48 h
ACHN renal = system: ACHN renal
EKVX NSCLC = system: EKVX NSCLC
HOP-92 NSCLC = system: HOP-92 NSCLC
MCF7 breast = system: MCF7 breast
NCI/ADR-RES ovarian = system: NCI/ADR-RES ovarian
OVCAR-4 ovarian = system: OVCAR-4 ovarian
SF-295 CNS = system: SF-295 CNS
SN12C renal = system: SN12C renal
SW-620 colon = system: SW-620 colon
UO-31 renal = system: UO-31 renal

## Cc1cc(C)c(C(=O)CC(=O)c2cccnc2)c(C)c1
ACHN renal
  GI50: 6.28 µM
  TGI: > 100 µM
EKVX NSCLC
  GI50: 3.97 µM
  TGI: 69.6 µM
HOP-92 NSCLC
  GI50: 7.47 µM
  TGI: 57 µM
MCF7 breast
  GI50: 5.96 µM
  TGI: > 100 µM
NCI/ADR-RES ovarian
  GI50: 2.29 µM
  TGI: 9.88 µM
OVCAR-4 ovarian
  GI50: 8.59 µM
  TGI: > 100 µM
SF-295 CNS
  GI50: 2.78 µM
  TGI: 83.5 µM
SN12C renal
  GI50: 9.35 µM
  TGI: > 100 µM
SW-620 colon
  GI50: 4.72 µM
  TGI: > 100 µM
UO-31 renal
  GI50: 4.63 µM
  TGI: > 100 µM

## O=C(Nc1ccc(Cl)cc1)c1cc(-c2ccc(F)cc2)c2sc(=O)[nH]c2n1
ACHN renal
  GI50: 1.69 µM
  TGI: 4.02 µM
EKVX NSCLC
  GI50: 1.64 µM
  TGI: 6.11 µM
HOP-92 NSCLC
  GI50: 0.204 µM
  TGI: 0.94 µM
MCF7 breast
  GI50: 1.31 µM
  TGI: 11.3 µM
NCI/ADR-RES ovarian
  GI50: 2.32 µM
  TGI: 10.9 µM
OVCAR-4 ovarian
  GI50: 1.99 µM
  TGI: 9.12 µM
SF-295 CNS
  GI50: 1.1 µM
  TGI: 3.8 µM
SN12C renal
  GI50: 1.99 µM
  TGI: 7.93 µM
SW-620 colon
  GI50: 3.01 µM
  TGI: 16.2 µM
UO-31 renal
  GI50: 1.61 µM
  TGI: 3.89 µM

## CCOC(=O)c1c(CN2CCN(c3ccccc3)CC2)n(-c2ccccc2)c2cc(Br)c(O)cc12
ACHN renal
  GI50: 8.39 µM
  TGI: 21.9 µM
EKVX NSCLC
  GI50: 11.2 µM
  TGI: 36.1 µM
HOP-92 NSCLC
  GI50: 2.98 µM
  TGI: 11.7 µM
MCF7 breast
  GI50: 4.01 µM
  TGI: 47.5 µM
NCI/ADR-RES ovarian
  GI50: 12.4 µM
  TGI: 41.7 µM
OVCAR-4 ovarian
  GI50: 8.63 µM
  TGI: 24.6 µM
SF-295 CNS
  GI50: 4.7 µM
  TGI: 24.3 µM
SN12C renal
  GI50: 5.68 µM
  TGI: 18.5 µM
SW-620 colon
  GI50: 6.32 µM
  TGI: 48 µM
UO-31 renal
  GI50: 8.99 µM
  TGI: 23.1 µM

## CN/N=C(/CCN1CCCC1)CC(c1ccccc1)c1c(O)c2ccccc2oc1=O (stereo unspecified)
ACHN renal
  TGI: > 100 µM
EKVX NSCLC
  TGI: > 100 µM
HOP-92 NSCLC
  TGI: 41.8 µM
MCF7 breast
  TGI: > 100 µM
NCI/ADR-RES ovarian
  TGI: > 100 µM
OVCAR-4 ovarian
  TGI: > 100 µM
SF-295 CNS
  TGI: > 100 µM
SN12C renal
  TGI: > 100 µM
SW-620 colon
  TGI: > 100 µM
UO-31 renal
  TGI: > 100 µM

## COc1cc2oc(-c3ccc(O)cc3)cc(=O)c2c(OC)c1OC
ACHN renal
  TGI: > 100 µM
EKVX NSCLC
  TGI: > 100 µM
HOP-92 NSCLC
  TGI: > 100 µM
MCF7 breast
  TGI: > 100 µM
NCI/ADR-RES ovarian
  TGI: > 100 µM
OVCAR-4 ovarian
  TGI: > 100 µM
SF-295 CNS
  TGI: > 100 µM
SN12C renal
  TGI: > 100 µM
SW-620 colon
  TGI: > 100 µM
UO-31 renal
  TGI: > 100 µM

## COC(=O)C(=O)C(C(=O)C(=O)Nc1ccccc1C(N)=O)c1nc2ccc(Cl)cc2[nH]c1=O (stereo unspecified)
ACHN renal
  TGI: > 100 µM
HOP-92 NSCLC
  TGI: > 100 µM
MCF7 breast
  TGI: > 100 µM
NCI/ADR-RES ovarian
  TGI: > 100 µM
OVCAR-4 ovarian
  TGI: > 100 µM
SF-295 CNS
  TGI: > 100 µM
SN12C renal
  TGI: > 100 µM
SW-620 colon
  TGI: > 100 µM
UO-31 renal
  TGI: > 100 µM

## O=C(N/N=C/c1cccc(O)c1O)c1ccccc1
ACHN renal
  GI50: 0.477 µM
  TGI: > 100 µM
HOP-92 NSCLC
  GI50: 0.329 µM
  TGI: 8.38 µM
MCF7 breast
  GI50: 0.357 µM
  TGI: > 100 µM
NCI/ADR-RES ovarian
  GI50: 0.648 µM
  TGI: > 100 µM
OVCAR-4 ovarian
  GI50: 0.312 µM
  TGI: > 29.5 µM
SF-295 CNS
  GI50: 2.28 µM
  TGI: > 100 µM
SN12C renal
  GI50: 0.73 µM
  TGI: > 100 µM
SW-620 colon
  GI50: 0.635 µM
  TGI: > 100 µM
UO-31 renal
  GI50: 0.434 µM
  TGI: 14 µM

## Cc1cn2c(/C=C3/C(=O)N(C)c4ccccc43)c(C)nc2s1
ACHN renal
  GI50: 25.9 µM
  TGI: > 100 µM
EKVX NSCLC
  GI50: 15.8 µM
  TGI: > 100 µM
HOP-92 NSCLC
  GI50: 31.9 µM
  TGI: > 100 µM
MCF7 breast
  GI50: 1.02 µM
  TGI: 13.3 µM
NCI/ADR-RES ovarian
  GI50: 3.4 µM
  TGI: 41 µM
OVCAR-4 ovarian
  GI50: 21.9 µM
  TGI: > 100 µM
SN12C renal
  GI50: 25.5 µM
  TGI: > 100 µM
SW-620 colon
  GI50: 4.3 µM
  TGI: > 100 µM
UO-31 renal
  GI50: 17.2 µM
  TGI: > 100 µM

## NC(=S)N/N=C/c1ccc(OC(=O)COc2ccc(Cl)cc2)cn1
ACHN renal
  GI50: 3.39 µM
  TGI: > 100 µM
EKVX NSCLC
  GI50: 30.9 µM
  TGI: > 100 µM
MCF7 breast
  GI50: 3.71 µM
  TGI: > 100 µM
NCI/ADR-RES ovarian
  GI50: 3.17 µM
  TGI: > 100 µM
OVCAR-4 ovarian
  GI50: 5.87 µM
  TGI: > 100 µM
SF-295 CNS
  GI50: 20.8 µM
  TGI: > 100 µM
SN12C renal
  GI50: 4.53 µM
  TGI: > 100 µM
SW-620 colon
  GI50: 3.29 µM
  TGI: > 100 µM
UO-31 renal
  GI50: 3.24 µM
  TGI: 21.5 µM

## CCS(=O)(=O)c1ccc(OC)c(Nc2ncc(-c3cccc(C(C)=O)c3)o2)c1
ACHN renal
  GI50: 11.4 µM
  TGI: > 25 µM
EKVX NSCLC
  GI50: > 25 µM
  TGI: > 25 µM
MCF7 breast
  GI50: > 25 µM
  TGI: > 25 µM
NCI/ADR-RES ovarian
  GI50: > 25 µM
  TGI: > 25 µM
OVCAR-4 ovarian
  GI50: > 25 µM
  TGI: > 25 µM
SF-295 CNS
  GI50: 23.1 µM
  TGI: > 25 µM
SN12C renal
  GI50: 14 µM
  TGI: > 25 µM
SW-620 colon
  GI50: > 25 µM
  TGI: > 25 µM
UO-31 renal
  GI50: 5.86 µM
  TGI: > 25 µM

## Cc1ccc(/C(=C/C=C(C#N)C#N)Sc2ccc(Cl)cc2)cc1
ACHN renal
  GI50: 4.62 µM
  TGI: 36.9 µM
EKVX NSCLC
  GI50: 22.3 µM
  TGI: 49.4 µM
HOP-92 NSCLC
  GI50: 15 µM
  TGI: 56.6 µM
MCF7 breast
  GI50: 5.24 µM
  TGI: > 100 µM
NCI/ADR-RES ovarian
  GI50: 5.99 µM
  TGI: 19.9 µM
OVCAR-4 ovarian
  GI50: 11.3 µM
  TGI: > 100 µM
SF-295 CNS
  GI50: 4.07 µM
  TGI: 16.8 µM
SN12C renal
  GI50: 4.32 µM
  TGI: 18 µM
SW-620 colon
  GI50: 3.53 µM
  TGI: 10.7 µM

## CCOC(=O)Sc1ncnc2nc[nH]c12
ACHN renal
  GI50: 4.65 µM
  TGI: > 100 µM
EKVX NSCLC
  GI50: 38.5 µM
  TGI: > 100 µM
MCF7 breast
  GI50: 0.616 µM
  TGI: > 100 µM
NCI/ADR-RES ovarian
  GI50: 3.47 µM
  TGI: > 100 µM
OVCAR-4 ovarian
  GI50: 0.491 µM
  TGI: > 100 µM
SF-295 CNS
  GI50: 2.43 µM
  TGI: > 100 µM
SN12C renal
  GI50: 7.94 µM
  TGI: > 100 µM
SW-620 colon
  GI50: 3.89 µM
  TGI: > 100 µM
UO-31 renal
  GI50: 4.14 µM
  TGI: > 100 µM

## CCOC(=O)c1cc(/C(=N\O)c2cc(OC)c(OC)c(OC)c2)n2cc(C)cc(C)c12
ACHN renal
  GI50: 3 µM
  TGI: > 100 µM
EKVX NSCLC
  GI50: 3.83 µM
  TGI: > 100 µM
HOP-92 NSCLC
  GI50: 2.26 µM
  TGI: 7.08 µM
MCF7 breast
  GI50: 1.93 µM
  TGI: > 100 µM
NCI/ADR-RES ovarian
  GI50: 2.19 µM
  TGI: 7.92 µM
OVCAR-4 ovarian
  GI50: 1.95 µM
  TGI: 5.1 µM
SF-295 CNS
  GI50: 1.72 µM
  TGI: 5.25 µM
SN12C renal
  GI50: 3.86 µM
  TGI: > 100 µM
SW-620 colon
  GI50: 2.56 µM
  TGI: > 100 µM

## CC12CCCC(O)C1CCC1=CC3(CCC12)SCCS3 (stereo unspecified)
ACHN renal
  TGI: > 10 µM
HOP-92 NSCLC
  TGI: > 10 µM
MCF7 breast
  TGI: > 10 µM
NCI/ADR-RES ovarian
  TGI: > 10 µM
OVCAR-4 ovarian
  TGI: > 10 µM
SF-295 CNS
  TGI: > 10 µM
SN12C renal
  TGI: > 10 µM
SW-620 colon
  TGI: > 10 µM

## COc1ccc(C(C)c2cc3c(cc2OC)OCO3)cc1 (stereo unspecified)
ACHN renal
  TGI: > 100 µM
EKVX NSCLC
  TGI: > 100 µM
HOP-92 NSCLC
  TGI: 36 µM
MCF7 breast
  TGI: 40.6 µM
NCI/ADR-RES ovarian
  TGI: 28.2 µM
OVCAR-4 ovarian
  TGI: > 100 µM
SN12C renal
  TGI: 43.5 µM
SW-620 colon
  TGI: > 100 µM
UO-31 renal
  TGI: > 100 µM

## O=C1c2ccccc2-c2c1c1ccccc1c(=O)n2Cc1ccccc1
EKVX NSCLC
  TGI: > 100 µM
HOP-92 NSCLC
  TGI: > 100 µM
MCF7 breast
  TGI: > 100 µM
NCI/ADR-RES ovarian
  TGI: > 100 µM
OVCAR-4 ovarian
  TGI: 42.3 µM
SF-295 CNS
  TGI: > 100 µM
SN12C renal
  TGI: > 100 µM
SW-620 colon
  TGI: > 100 µM
UO-31 renal
  TGI: > 100 µM
